# Source: ChEMBL document CHEMBL1201862, “PubChem BioAssay data set” (2004)
#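 Each compound was tested at five concentrations against cells in 96-well plates for 48 hours. At the GI50, growth is halved.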 Active and inactive are the calls of the source. Cut-off read from the data, not from the text of the source: active = GI50 up to about 1.1 µM and inactive = higher.
# Tests used:
# Experiment in all cases: NCI tumour cell line growth inhibition, 48 h
# [1] = test system: A498
# [2] = test system: COLO 205
# [3] = test system: HCT-116
# [4] = test system: HOP-92
# [5] = test system: HT-29
# [6] = test system: IGROV-1
# [7] = test system: KM12
# [8] = test system: M14
# [9] = test system: MCF7
# [10] = test system: MOLT-4
# [11] = test system: NCI-H226
# [12] = test system: NCI/ADR-RES
# [13] = test system: PC-3
# [14] = test system: RXF 393
# [15] = test system: SF-268
# [16] = test system: SF-295
# [17] = test system: SK-MEL-28
# [18] = test system: SW-620
# [19] = test system: UACC-62
# [20] = test system: UO-31
Compound,GI50 [1],GI50 [2],GI50 [3],GI50 [4],GI50 [5],GI50 [6],GI50 [7],GI50 [8],GI50 [9],GI50 [10],GI50 [11],GI50 [12],GI50 [13],GI50 [14],GI50 [15],GI50 [16],GI50 [17],GI50 [18],GI50 [19],GI50 [20]
O=C(O)C1C2C=CC(O2)C1C(=O)NCc1ccccn1 (centres undefined),> 100 µM (inactive),> 100 µM (inactive),> 100 µM (inactive),> 100 µM (inactive),> 100 µM (inactive),> 100 µM (inactive),> 100 µM (inactive),> 100 µM (inactive),> 100 µM (inactive),> 100 µM (inactive),> 100 µM (inactive),> 100 µM (inactive),> 100 µM (inactive),44.5 µM (inactive),> 100 µM (inactive),> 100 µM (inactive),> 100 µM (inactive),> 100 µM (inactive),> 100 µM (inactive),> 100 µM (inactive)
O=c1c(Cc2ccc(Cl)cc2)nnc2sc(-c3ccc(-c4ccc(Cl)cc4Cl)o3)nn12,41.5 µM (inactive),72.3 µM (inactive),27.5 µM (inactive),38.5 µM (inactive),64.1 µM (inactive),> 100 µM (inactive),76.6 µM (inactive),95.5 µM (inactive),30.5 µM (inactive),43.7 µM (inactive),> 100 µM (inactive),80.5 µM (inactive),79.8 µM (inactive),53.8 µM (inactive),> 100 µM (inactive),83.6 µM (inactive),> 100 µM (inactive),> 100 µM (inactive),63.1 µM (inactive),57.8 µM (inactive)
CN1C(=O)C23CCCCC2CC1(c1ccccc1)S3 (centres undefined),> 100 µM (inactive),71.9 µM (inactive),60.3 µM (inactive),60.7 µM (inactive),73.8 µM (inactive),> 100 µM (inactive),> 100 µM (inactive),> 100 µM (inactive),78.2 µM (inactive),38.3 µM (inactive),> 100 µM (inactive),38.5 µM (inactive),44.1 µM (inactive),59.2 µM (inactive),> 100 µM (inactive),65.3 µM (inactive),> 100 µM (inactive),> 100 µM (inactive),> 100 µM (inactive),63 µM (inactive)
CN(C)CCOc1ccc(-c2c(Oc3ccc(Cl)cc3)c(=O)oc3ccccc23)cc1,19.4 µM (inactive),3.61 µM (inactive),3.82 µM (inactive),19.5 µM (inactive),> 20.5 µM (inactive),4.7 µM (inactive),9.57 µM (inactive),2.21 µM (inactive),4.41 µM (inactive),5.47 µM (inactive),> 35.6 µM (inactive),> 35.1 µM (inactive),6.64 µM (inactive),8.09 µM (inactive),8.69 µM (inactive),5.36 µM (inactive),3.27 µM (inactive),> 23.5 µM (inactive),4.97 µM (inactive),5.43 µM (inactive)
COc1c(-c2ccc3c(c2)OCO3)oc2cc3c(c(OC)c2c1=O)OCO3 [MELITERNATIN],23.5 µM (inactive),23.1 µM (inactive),16.2 µM (inactive),15.3 µM (inactive),23.3 µM (inactive),18.7 µM (inactive),25.5 µM (inactive),26.2 µM (inactive),18.4 µM (inactive),> 100 µM (inactive),18.7 µM (inactive),27.6 µM (inactive),21.1 µM (inactive),28.5 µM (inactive),14.2 µM (inactive),22.6 µM (inactive),38.1 µM (inactive),25.1 µM (inactive),23.9 µM (inactive),23 µM (inactive)
CSc1ncnc2c1ncn2CCC#N,> 100 µM (inactive),> 100 µM (inactive),> 100 µM (inactive),> 100 µM (inactive),> 100 µM (inactive),> 100 µM (inactive),> 100 µM (inactive),> 100 µM (inactive),> 100 µM (inactive),> 100 µM (inactive),> 100 µM (inactive),> 100 µM (inactive),> 100 µM (inactive),> 100 µM (inactive),> 100 µM (inactive),> 100 µM (inactive),> 100 µM (inactive),> 100 µM (inactive),,> 100 µM (inactive)
CCOC(=O)c1cn(-c2ccccc2)c(=S)n2c1nc1ccccc12,23.9 µM (inactive),30.3 µM (inactive),42.6 µM (inactive),13.9 µM (inactive),30.5 µM (inactive),42.5 µM (inactive),33.7 µM (inactive),38.6 µM (inactive),35.5 µM (inactive),4.65 µM (inactive),27.3 µM (inactive),25.5 µM (inactive),24.4 µM (inactive),54.8 µM (inactive),21.7 µM (inactive),71.8 µM (inactive),28.2 µM (inactive),52.6 µM (inactive),53.8 µM (inactive),7.67 µM (inactive)
CN(C)CCOc1ccc2c(c1)C/C(=C/c1ncc([N+](=O)[O-])n1C)C2=O,2.23 µM (inactive),1.56 µM (inactive),1.27 µM (inactive),1.83 µM (inactive),1.35 µM (inactive),0.233 µM (active),2.61 µM (inactive),2.29 µM (inactive),0.703 µM (active),1.21 µM (inactive),1.46 µM (inactive),8.36 µM (inactive),3.4 µM (inactive),1.17 µM (inactive),1.89 µM (inactive),3.1 µM (inactive),17.6 µM (inactive),1.6 µM (inactive),1.95 µM (inactive),1.68 µM (inactive)
O=C1/C(=C/c2cccnc2)C(n2cccc2)c2c(Br)sc(Br)c21 (centres undefined),16.6 µM (inactive),6.64 µM (inactive),2.26 µM (inactive),2.01 µM (inactive),2.79 µM (inactive),1.58 µM (inactive),3.43 µM (inactive),2.15 µM (inactive),1.8 µM (inactive),2.19 µM (inactive),41.3 µM (inactive),7.43 µM (inactive),2.14 µM (inactive),2.4 µM (inactive),2.13 µM (inactive),15.2 µM (inactive),2.53 µM (inactive),2.32 µM (inactive),2 µM (inactive),1.78 µM (inactive)
Cc1cc2oc(C)c(S(=O)(=O)NC(=O)Nc3ccc(Cl)cc3)c(=O)c2c(=O)o1,> 100 µM (inactive),> 100 µM (inactive),> 100 µM (inactive),> 100 µM (inactive),> 100 µM (inactive),> 100 µM (inactive),> 100 µM (inactive),> 100 µM (inactive),> 100 µM (inactive),> 100 µM (inactive),> 100 µM (inactive),> 100 µM (inactive),83.6 µM (inactive),> 100 µM (inactive),> 100 µM (inactive),> 100 µM (inactive),> 100 µM (inactive),> 100 µM (inactive),30.9 µM (inactive),> 100 µM (inactive)
O=C(Nc1ccccc1)OCCN=C1c2ccccc2C(Br)C(Br)c2ccccc21 (centres undefined),13.2 µM (inactive),4.94 µM (inactive),3.88 µM (inactive),8.81 µM (inactive),5.25 µM (inactive),6.52 µM (inactive),13.2 µM (inactive),4.34 µM (inactive),5.68 µM (inactive),2.01 µM (inactive),12.6 µM (inactive),11.7 µM (inactive),19.3 µM (inactive),3.93 µM (inactive),10.5 µM (inactive),17.1 µM (inactive),9.06 µM (inactive),4.43 µM (inactive),11 µM (inactive),2.02 µM (inactive)
O=C1C(Cl)=C(OCCCCl)C(=O)c2c(O)ccc(O)c21,15.2 µM (inactive),1.53 µM (inactive),1.85 µM (inactive),1.78 µM (inactive),2.03 µM (inactive),4.18 µM (inactive),13.1 µM (inactive),1.43 µM (inactive),1.55 µM (inactive),0.189 µM (active),16.9 µM (inactive),3.69 µM (inactive),3.99 µM (inactive),2.28 µM (inactive),3.08 µM (inactive),6.17 µM (inactive),2.08 µM (inactive),1.35 µM (inactive),1.77 µM (inactive),6.55 µM (inactive)
Cc1cnccc1/N=N/c1ccc(N(C)C)cc1,28.3 µM (inactive),11.9 µM (inactive),22.9 µM (inactive),9.38 µM (inactive),23.1 µM (inactive),7.8 µM (inactive),20.3 µM (inactive),41.5 µM (inactive),14.4 µM (inactive),31.3 µM (inactive),4.82 µM (inactive),13 µM (inactive),26.6 µM (inactive),14.9 µM (inactive),16.8 µM (inactive),21.4 µM (inactive),22.3 µM (inactive),22.4 µM (inactive),13.8 µM (inactive),18.1 µM (inactive)
CCOC(=O)C(=Cn1c(=S)[nH]c2ccc([N+](=O)[O-])cc21)C(=O)OCC,> 100 µM (inactive),> 100 µM (inactive),> 100 µM (inactive),> 100 µM (inactive),> 100 µM (inactive),> 100 µM (inactive),> 100 µM (inactive),> 100 µM (inactive),> 100 µM (inactive),> 100 µM (inactive),39.8 µM (inactive),> 100 µM (inactive),> 100 µM (inactive),> 100 µM (inactive),> 100 µM (inactive),> 100 µM (inactive),> 100 µM (inactive),> 100 µM (inactive),> 100 µM (inactive),87.9 µM (inactive)
